These results are taken from patent US20190194179A1, “ANTIBIOTIC COMPOUNDS” (DISCUVA LTD., priority 2016, published 2019).

Counter-ions that a name gives are not always drawn. Some results are limits rather than exact numbers.

The test deals with Neisseria gonorrhoeae. The test is described as follows: EC50 determination: plate-based broth growth assay (absorbance at 600 nm) of Neisseria gonorrhoeae. It counts as cell-based. As to conditions: absorbance 600 nm after 20 hours at 37° C./5% CO2, read-out: IC50 (Inhibitory concentration) against Neisseria gonorrhoeae. As for the experimental part: Actively growing Neisseria gonorrhoeae on GC agar (based on; Spence et. al. (2008): Curr. Protoc. Microbiol. 8:4A.1.1-4A.1.26) plates are harvested and transferred to GC broth (based on; Spence et al (2008): Curr. Protoc. Microbiol. 8:4A.1.1-4A.1.26) to generate a liquid stock. This culture is allowed to establish and grow to mid-log phase (at 37° C./5% CO2), finally this culture is diluted (˜10^5 cells/ml) to generate a seed inoculum to establish plate-based broth assays. EC50 values were determined by assaying growth (absorbance read at 600 nm, after 20 hours at 37° C./5% CO2) of Neisseria gonorrhoeae across a 10-point dilution series of the test compound. The EC50 value is determined from transformed data to identify the concentration of compound giving a 50% response relative to control samples (no compound).

For the compound `Cn1cnc(Nc2nc3cc(C(F)(F)F)c(Cl)cc3o2)c1` [Example 140, 6-Chloro-N-(1-methyl-1H-imidazol-4-yl)-5-(trifluoromethyl)benzo[d]oxazol-2-amine], the IC50 is ≤ 1000 nM. Take `CC(C)NC(=O)c1csc(Nc2nc3cc(C(F)(F)F)ccc3o2)n1` [Example 4, N-Isopropyl-2-((5-(trifluoromethyl)benzo[d]oxazol-2-yl)amino)thiazole-4-carboxamide]: the IC50 was ≤ 1000 nM. For `COc1cc2nc(Nc3nnco3)oc2cc1Cl` [Example 204, 6-chloro-5-methoxy-N-(1,3,4-oxadiazol-2-yl)benzo[d]oxa-zol-2-amine], the IC50 is ≤ 1000 nM. As for `Cc1nnc(Nc2nc3cc(C(F)(F)F)ccc3o2)s1` [Example 111, N-(5-Methyl-1,3,4-thiadiazol-2-yl)-5-(trifluoromethyl)benzo[d]oxazol-2-amine], the figure is ≤ 1000 nM; as for `Cc1nnc(Nc2nc3cc(C(F)(F)F)ccc3o2)o1` [Example 22, N-(5-Methyl-1,3,4-oxadiazol-2-yl)-5-(trifluoromethyl)benzo[d]oxazol-2-amine], ≤ 1000 nM. As for `Cc1nc(Nc2nc3cc(C(F)(F)F)ccc3o2)oc1C` [Example 113, N-(4,5-Dimethyloxazol-2-yl)-5-(trifluoromethyl)benzo[d]oxazol-2-amine], the figure is ≤ 1000 nM; as for `O=C(NC1CC1)c1coc(Nc2nc3cc(C(F)(F)F)ccc3o2)n1` [Example 24, N-Cyclopropyl-2-((5-(trifluoromethyl)benzo[d]oxazol-2-yl)amino)oxazole-4-carboxamide], ≤ 1000 nM; as for `FC(F)(F)c1ccc2oc(Nc3ccon3)nc2c1` [Example 11, N-(Isoxazol-3-yl)-5-(trifluoromethyl)benzo[d]oxazol-2-amine], ≤ 1000 nM. As for `Cn1c(Nc2nnco2)nc2cc(C(F)(F)F)ccc21` [Example 69, N-(1-methyl-5-(trifluoromethyl)-1H-benzo[d]imidazol-2-yl)-1,3,4-oxadiazol-2-amine], the figure is ≤ 1000 nM; as for `Fc1ccc2oc(Nc3nc4cnccc4o3)nc2c1` [Example 160, N-(5-Fluorobenzo[d]oxazol-2-yl)oxazolo[4,5-c]pyridin-2-amine], ≤ 100000 nM; as for `Clc1ccc2nc(Nc3nnc(N4CCCC4)o3)oc2c1` [Example 198, 6-Chloro-N-(5-(pyrrolidin-1-yl)-1,3,4-oxadiazol-2-yl)benzo[d]oxa-zol-2-amine], ≤ 10000 nM. As to `Clc1ccc2nc(Nc3nnc(CN4CCCC4)[nH]3)oc2c1` [Example 132, 6-Chloro-N-(5-(pyrrolidin-1-ylmethyl)-4H-1,2,4-triazol-3-yl)benzo[d]oxazol-2-amine], the IC50 is ≤ 1000 nM. Take `FC(F)(F)c1ccc2oc(Nc3nccs3)nc2c1` [Example 6, N-(Thiazol-2-yl)-5-(trifluoromethyl)benzo[d]oxazol-2-amine]: the IC50 was ≤ 1000 nM. As for `FC(F)(F)c1ccc2oc(Nc3nc4ccccc4o3)nc2c1` [Example 158, N-(Benzo[d]oxazol-2-yl)-5-(trifluoromethyl) benzo[d]oxazol-2-amine], the figure is ≤ 100 nM; as for `CC(C)Oc1ccc2nc(Nc3nnco3)oc2c1` [Example 196, 6-Isopropoxy-N-(1,3,4-oxadiazol-2-yl)benzo[d]oxazol-2-amine], ≤ 100000 nM; as for `Clc1ccc2oc(Nc3cscn3)nc2c1` [Example 173, 5-Chloro-N-(thiazol-4-yl)benzo[d]oxazol-2-amine], ≤ 10000 nM.

Consider `Fc1cc2nc(Nc3nnco3)oc2cc1Cl` [Example 47, 6-Chloro-5-fluoro-N-(1,3,4-oxadiazol-2-yl)benzo[d]oxazol-2-amine], for which the IC50 is ≤ 100 nM. As for `Cc1nnc(Nc2nc3c(F)cccc3[nH]2)o1` [Example 87, N-(4-Fluoro-1H-benzo[d]imidazol-2-yl)-5-methyl-1,3,4-oxadiazol-2-amine], the figure is ≤ 1000 nM. As for `CCOC(=O)c1nnc(Nc2nc3cc(C(F)(F)F)ccc3o2)o1` [Example 52, Ethyl 5-((5-(trifluoromethyl)benzo[d]oxazol-2-yl)amino)-1,3,4-oxadiazole-2-carboxylate], the figure is ≤ 1000 nM; as for `Cc1cc2oc(Nc3nnco3)nc2cc1F` [Example 197, 5-Fluoro-6-methyl-N-(1,3,4-oxadiazol-2-yl)benzo[d]oxazol-2-amine], ≤ 100 nM. As for `OCc1ccc2nc(Nc3nnco3)oc2c1` [Example 181, (2-((1,3,4-Oxadiazol-2-yl)amino)ben-zo[d]oxazol-6-yl)methanol], the figure is ≤ 10000 nM. With `Cc1nnc(Nc2nc3cc(C(F)(F)F)c(Cl)cc3o2)[nH]1` [Example 125, 6-chloro-N-(5-methyl-4H-1,2,4-triazol-3-yl)-5-(trifluoromethyl)benzo[d]oxazol-2-amine], the IC50 is ≤ 100 nM. As for `Cc1nnc(Nc2nc3ccc(Cl)cc3o2)[nH]1` [Example 122, 6-Chloro-N-(5-methyl-4H-1,2,4-triazol-3-yl)benzo[d]oxazol-2-amine], the figure is ≤ 10000 nM; as for `NC(=O)c1nnc(Nc2nc3ccc(Cl)cc3o2)o1` [Example 200, 5-((6-Chlorobenzo[d]oxazol-2-yl)amino)-1,3,4-oxadiazole-2-carboxamide], ≤ 100000 nM; as for `CCOC(=O)c1nnc(Nc2nc3cc(C(F)(F)F)ccc3n2C)o1` [Example 55, Ethyl 5-((1-methyl-5-(trifluoromethyl)-1H-benzo[d]imidazol-2-yl)amino)-1,3,4-oxadiazole-2-carboxylate], ≤ 1000 nM. As for `Fc1ccc2oc(Nc3nnco3)nc2c1` [Example 66, 5-Fluoro-N-(1,3,4-oxadiazol-2-yl)benzo[d]oxazol-2-amine], the figure is ≤ 1000 nM.

Take `CC1CCCN1Cc1nnc(Nc2nc3cc(C(F)(F)F)ccc3o2)o1` (stereo not shown) [Example 73, N-(5-((2-Methylpyrrolidin-1-yl)methyl)-1,3,4-oxadiazol-2-yl)-5-(trifluoromethyl)benzo[d]oxazol-2-amine]: the IC50 was ≤ 1000 nM. As for `Clc1ccc2nc(Nc3nnco3)[nH]c2c1` [Example 91, N-(6-Chloro-1H-benzo[d]imidazol-2-yl)-1,3,4-oxadiazol-2-amine], the figure is ≤ 100000 nM. As for `FC(F)(F)c1ccc2oc(Nc3nnc(CN4CCOCC4)o3)nc2c1` [Example 70, N-(5-(morpholinomethyl)-1,3,4-oxadiazol-2-yl)-5-(trifluoromethyl)benzo[d]oxazol-2-amine], the figure is ≤ 1000 nM; as for `Cc1nnc(Nc2nc3cc(C(F)(F)F)ccc3[nH]2)s1` [Example 86, 5-Methyl-N-(5-(trifluoromethyl)-1H-benzo[d]imidazol-2-yl)-1,3,4-thiadiazol-2-amine], ≤ 1000 nM.

In the case of `O=C(O)c1nnc(Nc2nc3ccc(F)cc3o2)o1` [Example 223, Sodium 5-((6-fluorobenzo[d]oxazol-2-yl)amino)-1,3,4-oxadiazole-2-carboxylate], the IC50 was ≤ 100000 nM. As for `N#Cc1nnc(Nc2nc3cc(F)ccc3o2)o1` [Example 219, 5-((5-Fluorobenzo[d]oxazol-2-yl)amino)-1,3,4-oxadiazole-2-carbonitrile], the figure is ≤ 1000 nM; as for `Cc1nnc(Nc2nc3c(Cl)cc(Cl)cc3o2)[nH]1` [Example 123, 4,6-Dichloro-N-(5-methyl-4H-1,2,4-triazol-3-yl)benzo[d]oxazol-2-amine], ≤ 1000 nM; as for `FC(F)(F)c1ccc2oc(Nc3nnc(CN4CCNCC4)o3)nc2c1` [Example 147, N-(5-(Piperazin-1-ylmethyl)-1,3,4-oxadiazol-2-yl)-5-(trifluoromethyl)benzo[d]oxazol-2-amine hydrochloride], ≤ 100000 nM. As for `O=[N+]([O-])c1ccc2nc(Nc3nnco3)oc2c1` [Example 186, 6-Nitro-N-(1,3,4-oxadiazol-2-yl)benzo[d]ox-azol-2-amine], the figure is ≤ 10000 nM; as for `Cc1nnc(Nc2nc3cncc(Cl)c3o2)o1` [Example 64, 7-Chloro-N-(5-methyl-1,3,4-oxadiazol-2-yl)oxazolo[4,5-c]pyridin-2-amine], ≤ 10000 nM. As for `CN1CCC[C@@H]1c1nnc(Nc2nc3cc(C(F)(F)F)ccc3o2)o1` [Example 127, (R)-N-(5-(1-methylpyrrolidin-2-yl)-1,3,4-oxadiazol-2-yl)-5-(trifluoromethyl)benzo[d]oxazol-2-amine], the figure is ≤ 1000 nM; as for `Cc1nnc(Nc2nc3c(F)cccc3o2)[nH]1` [Example 124, 4-Fluoro-N-(5-methyl-4H-1,2,4-triazol-3-yl)benzo[d]oxazol-2-amine], ≤ 1000 nM. As to `FC(F)(F)c1ccc2oc(Nc3nc4ccncc4o3)nc2c1` [Example 59, N-(5-(triFluoromethyl)benzo[d]oxazol-2-yl)oxazolo[5,4-c]pyridin-2-amine], the IC50 was ≤ 1000 nM.

As for `Cc1cc2nc(Nc3nnco3)oc2cc1Cl` [Example 188, 6-Chloro-5-methyl-N-(1,3,4-oxadiazol-2-yl)benzo[d]ox-azol-2-amine], the IC50 was ≤ 100 nM. As to `COC(=O)c1ccc2oc(Nc3nnc(C)o3)nc2c1` [Example 44, Methyl 2-((5-methyl-1,3,4-oxadiazol-2-yl)amino)benzo[d]oxazole-5-carboxylate], the IC50 is ≤ 100 nM. As for `Cc1nnc(Nc2nc3ccc(C(F)(F)F)cc3n2C)o1` [Example 89, 5-Methyl-N-(1-methyl-6-(trifluoromethyl)-1H-benzo[d]imidazol-2-yl)-1,3,4-oxadiazol-2-amine], the figure is ≤ 1000 nM; as for `c1nnc(Nc2nc3ccc(N4CCCC4)cc3o2)o1` [Example 183, N-(1,3,4-oxadiazol-2-yl)-6-(pyrrolidin-1-yl)benzo[d]ox-azol-2-amine], ≤ 1000 nM.
